# In ChEMBL document CHEMBL3046498, “Weed control efficacy and winter wheat safety of a novel herbicide HW02” (Crop Prot, 2013):
# The source made the active and inactive calls. The calls are words filed in the database; no cut-off is given here.
# Key:
# Triticum aestivum [1] = test: Toxicity against Winter Triticum aestivum (wheat) cultivar Dongmai 12 assessed as spike numbers at 900 g ai/h applied at 2-tillering stage of crop in winter (reference value: 482.4/m'2); format: organism-based; conditions: in vivo, other
# Triticum aestivum [2] = test: Toxicity against Winter Triticum aestivum (wheat) cultivar Dongmai 12 assessed as 1000-grain weight at 225 g ai/h applied at 2-tillering stage of crop in winter (reference value: 42.6 g); format: organism-based; conditions: in vivo, other
# Triticum aestivum [3] = test: Toxicity against Winter Triticum aestivum (wheat) cultivar Dongmai 12 assessed as spike numbers at 450 g ai/h applied at late tillering stage of crop in spring (reference value: 482.4/m'2); format: organism-based; conditions: in vivo, other
# Triticum aestivum [4] = test: Toxicity against Winter Triticum aestivum (wheat) cultivar Dongmai 12 assessed as plant height at 900 g ai/h applied at 2-tillering stage of crop in winter (reference value: 72.7 cm); format: organism-based; conditions: in vivo, other
# Triticum aestivum [5] = test: Toxicity against Winter Triticum aestivum (wheat) cultivar Dongmai 12 assessed as 1000-grain weight at 225 g ai/h applied at 3-leaf stage of crop (reference value: 42.6 gms); format: organism-based; conditions: in vivo, other
# Capsella bursa-pastoris [6] = test: Herbicidal activity against Capsella bursa-pastoris in wheat cultivar Dongmai 12 field assessed as decrease in plant number applied during late tillering stage of winter wheatat 525 g ai/h measured after 45 days under field trials; format: functional, organism-based
# Descurainia sophia [7] = test: Herbicidal activity against Descurainia sophia in Wheat cultivar Dongmai 12 field assessed as decrease in plant number applied during late tillering stage of winter wheat at 525 g ai/h measured after 45 days under field trials; format: functional, organism-based
# Triticum aestivum [8] = test: Toxicity against Winter Triticum aestivum (wheat) cultivar Dongmai 12 assessed as 1000-grain weight at 450 g ai/h applied at 3-leaf stage of crop (reference value: 42.6 gms); format: organism-based; conditions: in vivo, other
# Triticum aestivum [9] = test: Toxicity against Winter Triticum aestivum (wheat) cultivar Dongmai 12 assessed as spike numbers at 450 g ai/h applied at 3-leaf stage of crop (reference value: 482.4/m'2); format: organism-based; conditions: in vivo, other
# Capsella bursa-pastoris [10] = test: Herbicidal activity against Capsella bursa-pastoris in wheat cultivar Dongmai 12 field assessed as decrease in biomass applied during late tillering stage of winter wheatat 525 g ai/h measured after 45 days under field trials; format: functional, organism-based
# Triticum aestivum [11] = test: Toxicity against Winter Triticum aestivum (wheat) cultivar Dongmai 12 assessed as plant height at 900 g ai/h applied at late tillering stage of crop in spring (reference value: 72.7 cm); format: organism-based; conditions: in vivo, other
# Capsella bursa-pastoris [12] = test: Herbicidal activity against Capsella bursa-pastoris in wheat cultivar lifeng 703 field assessed as decrease in plant number applied during late tillering stage of winter wheatat 525 g ai/h measured after 45 days under field trials; format: functional, organism-based
# Triticum aestivum [13] = test: Toxicity against Winter Triticum aestivum (wheat) cultivar Dongmai 12 assessed as spike numbers at 225 g ai/h applied at late tillering stage of crop in spring (reference value: 482.4/m'2); format: organism-based; conditions: in vivo, other
# Triticum aestivum [14] = test: Toxicity against Winter Triticum aestivum (wheat) cultivar Dongmai 12 assessed as plant height at 900 g ai/h applied at 3-leaf stage of crop (reference value: 72.7 cm); format: organism-based; conditions: in vivo, other
# Descurainia sophia [15] = test: Herbicidal activity against Descurainia sophia in Wheat cultivar Dongmai 12 field assessed as decrease in biomass applied during late tillering stage of winter wheat at 525 g ai/h measured after 45 days under field trials; format: functional, organism-based
# Triticum aestivum [16] = test: Toxicity against Winter Triticum aestivum (wheat) cultivar Dongmai 12 assessed as grain yield at 525 g ai/h; format: organism-based; conditions: in vivo
# Triticum aestivum [17] = test: Toxicity against Winter Triticum aestivum (wheat) cultivar Dongmai 12 assessed as abnormal ear formation at 525 g ai/h; format: organism-based; conditions: in vivo
# Triticum aestivum [18] = test: Toxicity against Winter Triticum aestivum (wheat) cultivar Dongmai 12 assessed as spike numbers at 450 g ai/h applied at booting stage of crop (reference value: 482.4/m'2); format: organism-based; conditions: in vivo, other
# Triticum aestivum [19] = test: Toxicity against Winter Triticum aestivum (wheat) cultivar Dongmai 12 assessed as plant height at 225 g ai/h applied at late tillering stage of crop in spring (reference value: 72.7 cm); format: organism-based; conditions: in vivo, other
# Triticum aestivum [20] = test: Toxicity against Winter Triticum aestivum (wheat) cultivar Dongmai 12 assessed as 1000-grain weight at 900 g ai/h applied at 2-tillering stage of crop in winter (reference value: 42.6 g); format: organism-based; conditions: in vivo, other
# Triticum aestivum [21] = test: Toxicity against Winter Triticum aestivum (wheat) cultivar Dongmai 12 assessed as spike numbers at 900 g ai/h applied at late tillering stage of crop in spring (reference value: 482.4/m'2); format: organism-based; conditions: in vivo, other
# Triticum aestivum [22] = test: Toxicity against Winter Triticum aestivum (wheat) cultivar Dongmai 12 assessed as spike numbers at 900 g ai/h applied at 3-leaf stage of crop (reference value: 482.4/m'2); format: organism-based; conditions: in vivo, other
# Triticum aestivum [23] = test: Toxicity against Winter Triticum aestivum (wheat) cultivar lifeng 703 assessed as abnormal ear formation at 525 g ai/h; format: organism-based; conditions: in vivo
# Triticum aestivum [24] = test: Toxicity against Winter Triticum aestivum (wheat) cultivar Dongmai 12 assessed as 1000-grain weight at 900 g ai/h applied at late tillering stage of crop in spring (reference value: 42.6 g); format: organism-based; conditions: in vivo, other
# Amaranthus retroflexus = test: Herbicidal activity against Amaranthus retroflexus assessed as decrease in biomass treated at 4-5 leaf stage measured after 14 days under greenhouse trials; format: functional
# Triticum aestivum [25] = test: Toxicity against Winter Triticum aestivum (wheat) cultivar Dongmai 12 assessed as plant height at 450 g ai/h applied at 2-tillering stage of crop in winter (reference value: 72.7 cm); format: organism-based; conditions: in vivo, other
# Triticum aestivum [26] = test: Toxicity against Winter Triticum aestivum (wheat) cultivar Dongmai 12 assessed as 1000-grain weight at 900 g ai/h applied at 3-leaf stage of crop (reference value: 42.6 g); format: organism-based; conditions: in vivo, other
# Capsella bursa-pastoris [27] = test: Herbicidal activity against Capsella bursa-pastoris assessed as decrease in biomass treated at 4-5 leaf stage measured after 14 days under greenhouse trials; format: functional
# Triticum aestivum [28] = test: Toxicity against Winter Triticum aestivum (wheat) cultivar Dongmai 12 assessed as spike numbers at 225 g ai/h applied at 3-leaf stage of crop (reference value: 482.4/m'2); format: organism-based; conditions: in vivo, other
# Capsella bursa-pastoris [29] = test: Herbicidal activity against Capsella bursa-pastoris in wheat cultivar lifeng 703 field assessed as decrease in biomass applied during late tillering stage of winter wheatat 525 g ai/h measured after 45 days under field trials; format: functional, organism-based
# Triticum aestivum [30] = test: Toxicity against Winter Triticum aestivum (wheat) cultivar Dongmai 12 assessed as 1000-grain weight at 450 g ai/h applied at booting stage of crop (reference value: 42.6 g); format: organism-based; conditions: in vivo, other
# Triticum aestivum [31] = test: Toxicity against Winter Triticum aestivum (wheat) cultivar Dongmai 12 assessed as plant height at 450 g ai/h applied at late tillering stage of crop in spring (reference value: 72.7 cm); format: organism-based; conditions: in vivo, other
# Triticum aestivum [32] = test: Toxicity against Winter Triticum aestivum (wheat) cultivar Dongmai 12 assessed as plant height at 225 g ai/h applied at 2-tillering stage of crop in winter (reference value: 72.7 cm); format: organism-based; conditions: in vivo, other
# Triticum aestivum [33] = test: Toxicity against Winter Triticum aestivum (wheat) cultivar Dongmai 12 assessed as 1000-grain weight at 450 g ai/h applied at late tillering stage of crop in spring (reference value: 42.6 g); format: organism-based; conditions: in vivo, other
# Triticum aestivum [34] = test: Toxicity against Winter Triticum aestivum (wheat) cultivar Dongmai 12 assessed as plant height at 450 g ai/h applied at 3-leaf stage of crop (reference value: 72.7 cm); format: organism-based; conditions: in vivo, other
# Triticum aestivum [35] = test: Toxicity against Winter Triticum aestivum (wheat) cultivar Dongmai 12 assessed as 1000-grain weight at 225 g ai/h applied at booting stage of crop (reference value: 42.6 g); format: organism-based; conditions: in vivo, other
# Triticum aestivum [36] = test: Toxicity against Winter Triticum aestivum (wheat) cultivar Dongmai 12 assessed as spike numbers at 900 g ai/h applied at booting stage of crop (reference value: 482.4/m'2); format: organism-based; conditions: in vivo, other
# Descurainia sophia [37] = test: Herbicidal activity against Descurainia sophia in Wheat cultivar lifeng 703 field assessed as decrease in biomass applied during late tillering stage of winter wheat at 525 g ai/h measured after 45 days under field trials; format: functional, organism-based
# Triticum aestivum [38] = test: Toxicity against Winter Triticum aestivum (wheat) cultivar Dongmai 12 assessed as plant height at 225 g ai/h applied at 3-leaf stage of crop (reference value: 72.7 cm); format: organism-based; conditions: in vivo, other
# Myosoton aquaticum = test: Herbicidal activity against Myosoton aquaticum assessed as decrease in biomass treated at four to five-leaf stage measured after 14 days under greenhouse trials; format: functional
# Triticum aestivum [39] = test: Toxicity against Winter Triticum aestivum (wheat) cultivar lifeng 703 assessed as grain yield at 525 g ai/h; format: organism-based; conditions: in vivo
# Triticum aestivum [40] = test: Toxicity against Winter Triticum aestivum (wheat) cultivar Dongmai 12 assessed as spike numbers at 225 g ai/h applied at 2-tillering stage of crop in winter (reference value: 482.4/m'2); format: organism-based; conditions: in vivo, other
# Triticum aestivum [41] = test: Toxicity against Winter Triticum aestivum (wheat) cultivar Dongmai 12 assessed as plant height at 900 g ai/h applied at booting stage of crop (reference value: 72.7 cm); format: organism-based; conditions: in vivo, other
# Triticum aestivum [42] = test: Toxicity against Winter Triticum aestivum (wheat) cultivar Dongmai 12 assessed as plant height at 225 g ai/h applied at booting stage of crop (reference value: 72.7 cm); format: organism-based; conditions: in vivo, other
# Triticum aestivum [43] = test: Toxicity against Winter Triticum aestivum (wheat) cultivar Dongmai 12 assessed as spike numbers at 225 g ai/h applied at booting stage of crop (reference value: 482.4/m'2); format: organism-based; conditions: in vivo, other
# Descurainia sophia [44] = test: Herbicidal activity against Descurainia sophia in Wheat cultivar lifeng 703 field assessed as decrease in plant number applied during late tillering stage of winter wheat at 525 g ai/h measured after 45 days under field trials; format: functional, organism-based
# Triticum aestivum [45] = test: Toxicity against Winter Triticum aestivum (wheat) cultivar Dongmai 12 assessed as 1000-grain weight at 900 g ai/h applied at booting stage of crop (reference value: 42.6 g); format: organism-based; conditions: in vivo, other
# Triticum aestivum [46] = test: Toxicity against Winter Triticum aestivum (wheat) cultivar Dongmai 12 assessed as spike numbers at 450 g ai/h applied at 2-tillering stage of crop in winter (reference value: 482.4/m'2); format: organism-based; conditions: in vivo, other
# Triticum aestivum [47] = test: Toxicity against Winter Triticum aestivum (wheat) cultivar Dongmai 12 assessed as 1000-grain weight at 450 g ai/h applied at 2-tillering stage of crop in winter (reference value: 42.6 g); format: organism-based; conditions: in vivo, other
# Descurainia sophia [48] = test: Herbicidal activity against Descurainia sophia assessed as decrease in biomass treated at 4-5 leaf stage measured after 14 days under greenhouse trials; format: functional
# Triticum aestivum [49] = test: Toxicity against Winter Triticum aestivum (wheat) cultivar Dongmai 12 assessed as 1000-grain weight at 225 g ai/h applied at late tillering stage of crop in spring (reference value: 42.6 g); format: organism-based; conditions: in vivo, other
# Triticum aestivum [50] = test: Toxicity against Winter Triticum aestivum (wheat) cultivar Dongmai 12 assessed as plant height at 450 g ai/h applied at booting stage of crop (reference value: 72.7 cm); format: organism-based; conditions: in vivo, other
compound,measurement,setting,value
"O=C(O)COc1ccc(Cl)cc1Cl [2,4-DICHLOROPHENOXYACETIC ACID]",Activity,Triticum aestivum [1],450 /m2
same,Activity,Triticum aestivum [2],42.6 g
same,Activity,Triticum aestivum [3],480 /m2
same,Activity,Triticum aestivum [4],71.5 cm
same,Activity,Triticum aestivum [5],40.9 g
same,inhibition,Capsella bursa-pastoris [6],Active
same,inhibition,Descurainia sophia [7],Active
same,Activity,Triticum aestivum [8],38.8 g
same,Activity,Triticum aestivum [9],366 /m2
same,inhibition,Capsella bursa-pastoris [10],Active
same,Activity,Triticum aestivum [11],72.3 cm
same,inhibition,Capsella bursa-pastoris [12],Active
same,Activity,Triticum aestivum [13],484.5 /m2
same,Activity,Triticum aestivum [14],61.6 cm
same,inhibition,Descurainia sophia [15],Active
same,Activity,Triticum aestivum [16],5.6 tons/ha
same,Activity,Triticum aestivum [17],Non-toxic
same,Activity,Triticum aestivum [18],474 /m2
same,Activity,Triticum aestivum [19],73.2 cm
same,Activity,Triticum aestivum [20],42.2 g
same,Activity,Triticum aestivum [21],480 /m2
same,Activity,Triticum aestivum [22],361.5 /m2
same,Activity,Triticum aestivum [23],Toxic
same,Activity,Triticum aestivum [24],42.2 g
same,ED50,Amaranthus retroflexus,74.1 gAi/ha
same,Activity,Triticum aestivum [25],71.9 cm
same,Activity,Triticum aestivum [26],37.5 g
same,ED50,Capsella bursa-pastoris [27],75.4 gAi/ha
same,Activity,Triticum aestivum [28],406.5 /m2
same,inhibition,Capsella bursa-pastoris [29],Active
same,Activity,Triticum aestivum [30],42.5 g
same,Activity,Triticum aestivum [31],72 cm
same,Activity,Triticum aestivum [32],72 cm
same,Activity,Triticum aestivum [33],42.2 g
same,Activity,Triticum aestivum [34],66 cm
same,Activity,Triticum aestivum [35],42.5 g
same,Activity,Triticum aestivum [36],474 /m2
same,inhibition,Descurainia sophia [37],Active
same,Activity,Triticum aestivum [38],70.3 cm
same,ED50,Myosoton aquaticum,60.2 gAi/ha
same,Activity,Triticum aestivum [39],8.2 tons/ha
same,Activity,Triticum aestivum [40],478.5 /m2
same,Activity,Triticum aestivum [41],70.5 cm
same,Activity,Triticum aestivum [42],72 cm
same,Activity,Triticum aestivum [43],484.5 /m2
same,inhibition,Descurainia sophia [44],Active
same,Activity,Triticum aestivum [45],41.7 g
same,Activity,Triticum aestivum [46],453 /m2
same,Activity,Triticum aestivum [47],42.6 g
same,ED50,Descurainia sophia [48],23.9 gAi/ha
same,Activity,Triticum aestivum [49],42.4 g
same,Activity,Triticum aestivum [50],71.5 cm
